# Measured values: patent US12570657B2, “Mesylate salts of heterocyclic cytokinins, compositions containing these derivatives and use thereof” (UNIVERZITA PALACKEHO V OLOMOUCI, priority 2020, dated 2026)
# Where a name gives a salt, the structure may show the parent alone.
# What was measured:
# [1] = test system: winter wheat leaf segments; assay: Senescence bioassay: retention of chlorophyll in excised winter wheat leaf tips; type: in vivo, Triticum aestivum cv. Hereward; conditions: for activity (%) [10^−4 mol · l^−1 BAP = 100%]: chlorophyll retention at concentration with highest activity, 10^−4 M BAP = 100%; for concentration with highest activity: chlorophyll retention, excised wheat leaf tips, 96 h dark
# Experimental: Seeds of winter wheat, Triticum aestivum cv. Hereward, were washed under running water for 24 hours and then sown on vermiculite soaked with Knop's solution. They were placed in a growth chamber at 25° C. with a 16/8 h light/dark period at 50 μmol·m^−2·s^−1. After 7 days, the first leaf was fully developed and the second leaf had started to grow. A tip section of the first leaf, approximately 35 mm long, was removed from 5 seedlings and trimmed slightly to a combined weight of 100 mg. The basal ends of the five leaf tips were placed in the wells of a microtiter polystyrene plate containing 150 μl of each tested compound solution. The entire plate was inserted into a plastic box lined with paper tissues soaked in distilled water to prevent leaf sections from drying out. After 96 h incubation in the dark at 25° C., the leaves were removed and chlorophyll extracted by heating at 80° C. for 10 min in 5 ml of 80% ethanol (v/v). The sample volume was then restored to 5 ml by the addition of 80% ethanol (v/v). The absorbance of the extract was recorded at 665 nm. In addition, chlorophyll extracts from fresh leaves and leaf tips incubated in deionised water were measured. […] Relative activity of the compound at this concentration was calculated (Tab. 3). The activity obtained for 10^−4 M 6-benzylaminopurine (BAP) was postulated as 100%. The values shown are means of five replicates and the whole experiment was repeated twice. The tested cytokinin bases were dissolved in dimethylsulfoxide (DMSO) and the solution brought up to 10^−3 M with distilled water. Cytokinin mesylate salts which are more water-soluble (BAP mesylate, meta-topolin mesylate and kinetin mesylate) could be directly dissolved to form a 10^−3 M solution in distilled water.
# [2] = test system: MCF-7 (breast adenocarcinoma); assay: In vitro cytotoxicity, Calcein AM assay, MCF7; type: cell-based; conditions: 3-day Calcein-AM assay
# Description: (§1) Because toxic compounds adversely affect cell metabolic processes, many standard cytotoxicity assays are based on measuring the rate of metabolism of various artificial substrates. The resulting product is then quantified, for example, by spectrometry. Assays can be easily modified for use in 96-well plates, A microtiter assay based on the quantification of Calcein AM metabolism was used to evaluate the cytotoxicity of cytokinins, for example meta-topolin, ortho-topolin, kinetin, BAP or its mesylate salts, but also a number of other cytokinin mesylate derivatives according to the invention. The test is widely used in drug screening programs and in chemosensitivity testing. In living cells, Calcein AM is enzymatically hydrolyzed and the accumulation of the resulting calcein is manifested by green fluorescence. […] These cells were maintained in standard DMEM or RPMI medium (Sigma, MO, USA) supplemented with heat-inactivated fetal bovine serum (10%) with 2 mM L-glutamine and penicillin-streptomycin (1%) under standard cell culture conditions (37° C., 5% CO2 in a humid environment) and subcultured two or three times a week using a standard trypsinization procedure. Approximately 10,000 cells in 80 μl of medium were seeded in a 96-well microtiter plate. After 12 hours of incubation, the compounds to be tested were added in 20 μl aliquots. Control cultures were treated with DMSO alone. […] After 72 hours of incubation, Calcein AM solution (Molecular Probes) was added to a final concentration of 1 μg/ml and the cells were incubated for another hour.
# (§2) Cytoxicity of compounds was tested on panel of cell lines of different histogenetic and species origin.
# [3] = test system: CEM (T-lymphoblastic leukemia); assay: In vitro cytotoxicity, Calcein AM assay, CEM; type: cell-based; conditions: 3-day Calcein-AM assay
# Description: as §1, §2
# [4] = test system: K562 (chronic myeloid leukemia); assay: In vitro cytotoxicity, Calcein AM assay, K-562; type: cell-based; conditions: 3-day Calcein-AM assay
# Description: as §1, §2
# [5] = test system: cytokinin-dependent tobacco callus; assay: Tobacco callus biotest (stimulation of plant cell division); type: cell-based, Nicotiana tabacum L. cv. Wisconsin 38; conditions: for activity (%) [10^−5 mol · l^−1 BAP = 100%]: callus growth at concentration with highest activity, 10^−5 M BAP = 100%; for concentration with highest activity: tobacco callus fresh weight increase, four weeks
# Experimental: Stimulation effect of the cytokinin mesylates was tested in tobacco callus biotest using cytokinin dependent tobacco callus. Cytokinin-dependent tobacco callus Nicotiana tabacum L. cv. […] Subcultivation was carried out every three weeks. Fourteen days before the bioassay, the callus tissue was transferred to the media without BAP. Biological activity was determined from the increase in fresh callus weight after four weeks of cultivation. Five replicates were prepared for each cytokinin concentration and the entire test was repeated twice. […] Relative activity of the compound at this concentration was calculated (Tab. 15). The activity obtained for 10^−5 M 6-benzylaminopurine (BAP) was postulated as 100%. The cytokinin bases to be tested were dissolved in dimethylsulfoxide (DMSO) and the solution brought up to 10^−3 M with distilled water. The mesylate salts were dissolved directly in distilled water.
# [6] = test system: HOS (human osteosarcoma); assay: In vitro cytotoxicity, Calcein AM assay, HOS; type: cell-based; conditions: 3-day Calcein-AM assay
# Description: as §1, §2
# [7] = test system: HL-60 (promyelocytic, leukemia); assay: In vitro cytotoxicity, Calcein AM assay, HL60; type: cell-based; conditions: 3-day Calcein-AM assay
# Description: as §1, §2
# [8] = test system: Spring barley (variety Francin); assay: Field trial: grain yield and productive tillers of spring barley after foliar spray; type: in vivo; conditions: 5 uMol
# Experimental: Spring barley (variety Francin) was treated in 2019 at the locality in Olomouc, sprayed with substances—marked BAP (benzylaminopurine), meta-topolin mesylate and BAP mesylate. The seed was 3.5 million germinating seeds, the experiment was established in 5 randomized replicates for each variant, the control was an untreated variant. The experiment was performed according to the GEP (Good Experimental Practice) methodology, the size of individual plots was 10 m^2. The application of the substances was carried out at a rate of 300 l/ha, in the growth phase BBCH 31-33 (beginning of peeling).
# [9] = application BBCH 31-33, untreated control = 100
smiles,measurement,setting,value
"CC(CO)CCNc1ncnc2[nH]cnc12.CS(=O)(=O)O (racemic) [DHZ mesylate, (RS)-4-((9H-Purin Ylamino)-2-Methylbutan-1-ol) Methanesulphonate]",activity (%) [10^−4 mol · l^−1 BAP = 100%],[1],82%
same,concentration with highest activity,[1],10^−4 mol · l^−1
same,IC50,[2],> 167 µM
same,IC50,[3],> 167 µM
same,IC50,[4],> 167 µM
same,activity (%) [10^−5 mol · l^−1 BAP = 100%],[5],78%
same,concentration with highest activity,[5],10^−6 mol · l^−1
"CC(CO)CCNc1ncnc2nc[nH]c12 (racemic) [Dihydrozeatin (DHZ), dihydrozeatin]",activity (%) [10^−4 mol · l^−1 BAP = 100%],[1],81%
same,IC50,"[2]; Homo sapiens, MCF7, 72 h",> 167 µM
same,IC50,"[6]; Homo sapiens, 72 h",> 167 µM
same,IC50,[3]; 72 h,> 167 µM
same,IC50,"[4]; Homo sapiens, K562, 72 h",> 167 µM
same,activity (%) [10^−5 mol · l^−1 BAP = 100%],[5],78%
same,IC50,"[7]; Homo sapiens, HL-60, 72 h",> 167 µM
CS(=O)(=O)O.Fc1ccc(CNc2ncnc3nc[nH]c23)c(F)c1 [2.4diFBAP mesylate],activity (%) [10^−4 mol · l^−1 BAP = 100%],[1],141%
same,concentration with highest activity,[1],10^−5 mol · l^−1
"CS(=O)(=O)O.Clc1ccccc1CNc1ncnc2nc[nH]c12 [2ClBAP mesylate, 6-(2-chlorobenzylamino)purine mesylate]",activity (%) [10^−4 mol · l^−1 BAP = 100%],[1],122%
same,IC50,[2]; mesylate,128 µM
same,IC50,[6]; mesylate,100 µM
same,IC50,[3]; mesylate,112 µM
same,IC50,[4]; mesylate,90.4 µM
same,activity (%) [10^−5 mol · l^−1 BAP = 100%],[5],97%
"CS(=O)(=O)O.Fc1ccccc1CNc1ncnc2nc[nH]c12 [2FBAP mesylate, 6-(2-fluorobenzylamino)purine mesylate]",activity (%) [10^−4 mol · l^−1 BAP = 100%],[1],175%
same,IC50,[3]; mesylate,99.5 µM
same,IC50,[4]; mesylate,70.7 µM
same,activity (%) [10^−5 mol · l^−1 BAP = 100%],[5],110%
same,IC50,"[7]; Homo sapiens, HL-60, 72 h",126 µM
Fc1ccc(CNc2ncnc3nc[nH]c23)c(F)c1 [2MBAP mesylate],activity (%) [10^−4 mol · l^−1 BAP = 100%],[1],157%
same,concentration with highest activity,[1],10^−4 mol · l^−1
same,activity (%) [10^−5 mol · l^−1 BAP = 100%],[5],121%
same,concentration with highest activity,[5],10^−6 mol · l^−1
"COc1ccccc1CNc1ncnc2nc[nH]c12.CS(=O)(=O)O [2MeOBAP mesylate, 6-(2-methoxybenzylamino)purine mesylate]",activity (%) [10^−4 mol · l^−1 BAP = 100%],[1],271%
same,IC50,[2]; mesylate,> 167 µM
same,IC50,[3]; mesylate,98.2 µM
same,IC50,[4]; mesylate,117 µM
same,activity (%) [10^−5 mol · l^−1 BAP = 100%],[5],82%
"COc1ccccc1CNc1ncnc2nc[nH]c12 [2MeOBAP, 6-(2-methoxybenzylamino)purine]",IC50,"[2]; Homo sapiens, MCF7, 72 h",153 µM
same,IC50,"[6]; Homo sapiens, 72 h",> 167 µM
same,IC50,[3]; 72 h,63.4 µM
same,IC50,"[4]; Homo sapiens, K562, 72 h",116 µM
same,activity (%) [10^−5 mol · l^−1 BAP = 100%],[5],79%
same,IC50,"[7]; Homo sapiens, HL-60, 72 h",> 167 µM
"COc1cccc(CNc2ncnc3nc[nH]c23)c1O [2OH3MeOBAP mesylate, 6-(2-hydroxy-3-methoxybenzylamino)purine mesylate]",IC50,[2]; mesylate,32.1 µM
same,IC50,[3]; mesylate,51 µM
same,IC50,[7]; mesylate,67.8 µM
"COc1cccc(CNc2ncnc3nc[nH]c23)c1O [2OH3MeOBAP, 6-(2-hydroxy-3-methoxybenzylamino)purine]",IC50,"[2]; Homo sapiens, MCF7, 72 h",26.6 µM
same,IC50,[3]; 72 h,41.6 µM
same,IC50,"[4]; Homo sapiens, K562, 72 h",> 167 µM
same,IC50,"[7]; Homo sapiens, HL-60, 72 h",64.3 µM
CS(=O)(=O)O.Fc1cc(F)cc(CNc2ncnc3nc[nH]c23)c1 [3.5diFBAP mesylate],activity (%) [10^−4 mol · l^−1 BAP = 100%],[1],168%
same,concentration with highest activity,[1],10^−5 mol · l^−1
"CS(=O)(=O)O.Clc1cccc(CNc2ncnc3nc[nH]c23)c1 [3ClBAP mesylate, 6-(3-chlorobenzylamino)purine mesylate]",activity (%) [10^−4 mol · l^−1 BAP = 100%],[1],82%
same,activity (%) [10^−5 mol · l^−1 BAP = 100%],[5],101%
"CS(=O)(=O)O.Fc1cccc(CNc2ncnc3nc[nH]c23)c1 [3FBAP mesylate, 6-(3-fluorobenzylamino)purine mesylate]",activity (%) [10^−4 mol · l^−1 BAP = 100%],[1],210%
same,IC50,[2]; mesylate,> 167 µM
same,IC50,[4]; mesylate,136 µM
same,activity (%) [10^−5 mol · l^−1 BAP = 100%],[5],137%
Clc1ccc(CNc2ncnc3nc[nH]c23)cc1 [4ClBAP],IC50,[2],> 167 µM
same,IC50,[6],> 167 µM
same,IC50,[3],> 167 µM
same,IC50,[4],> 167 µM
same,IC50,[7],> 167 µM
"CS(=O)(=O)O.Fc1ccc(CNc2ncnc3nc[nH]c23)cc1 [4FBAP mesylate, 6-(4-fluorobenzylamino)purine mesylate]",activity (%) [10^−4 mol · l^−1 BAP = 100%],[1],98%
same,activity (%) [10^−5 mol · l^−1 BAP = 100%],[5],126%
"COc1ccc(CNc2ncnc3nc[nH]c23)cc1 [4MeOBAP mesylate, 6-(4-methoxybenzylamino)purine mesylate]",IC50,[4]; mesylate,118 µM
Fc1ccc(CNc2ncnc3nc[nH]c23)c(F)c1 [6-(2.4-difluorobenzylamino)purine (2.4diFBAP)],activity (%) [10^−4 mol · l^−1 BAP = 100%],[1],139%
same,concentration with highest activity,[1],10^−5 mol · l^−1
Fc1cc(F)cc(CNc2ncnc3nc[nH]c23)c1 [6-(3.5-difluorobenzylamino)purine],activity (%) [10^−4 mol · l^−1 BAP = 100%],[1],156%
same,concentration with highest activity,[1],10^−5 mol · l^−1
"C/C(=C/CNc1ncnc2nc[nH]c12)CO [Cis-zeatin (cZ), Cis-zeatin]",IC50,[2],> 167 µM
same,IC50,[6],> 167 µM
same,IC50,[3],> 167 µM
same,IC50,[7],> 167 µM
"C/C(=C/CNc1ncnc2[nH]cnc12)CO [cZ mesylate, (Z)-4-((9H-Purin Ylamino)-2-Methylbut-2-En-1-ol) Methanesulphonate]",IC50,[2],> 167 µM
same,IC50,[3],> 167 µM
CS(=O)(=O)O.Oc1cccc(CNc2ncnc3[nH]cnc23)c1 [m-topolin mesylate],Length of plants,[8]; application BBCH 31-33,83.1 cm
same,Medium tillers (number),[8]; application BBCH 31-33,1.25
same,Number of spikes per square meter,[8]; application BBCH 31-33,721.6
same,SUM of tillers,[8]; application BBCH 31-33,5.5
same,Strong tillers (number),[8]; application BBCH 31-33,2.45
same,Weak tillers (number),[8]; application BBCH 31-33,1.8
same,Grain yield (t/ha) at 14% humidity,"[8]; application BBCH 31-33, spring barley",8.01 t/ha
same,"Grain yield, % compared to control",[8]; [9],108.03%
same,"Length of plants, % compared to control",[8]; [9],100.36%
same,"Medium tillers, % compared to control",[8]; [9],59.52%
same,"Number of spikes per square meter, % compared to control",[8]; [9],106.62%
same,"SUM of tillers, % compared to control",[8]; [9],95.65%
same,"Strong tillers, % compared to control",[8]; [9],136.11%
same,"Weak tillers, % compared to control",[8]; [9],97.3%
